Series [1] can be described thus: Cleavage (deprotection) of the esters 4d and of trifluoroacetate 5a. The format is physicochemical. From the text:
Thus, compounds of the invention enabled a wide range of organic reactions for the generation of libraries of MraY inhibitors in solution (Scheme III). Compounds of the invention, e.g., (2,6-dicholoro-4-methoxyphenyl)(2,4-dichlorophenyl)methanol, can also be used as linkers to immobilize carboxylic acids, amines, alcohols, as well as other functional groups which can, however, be cleaved by 20% TFA.
The trifluoroacetate 5a was also stable under most acidic conditions tested in Table 1 and SiO2, but could easily be cleaved by aq NH3 in THF-MeOH within 3 h to regenerate 3d in quantitative yield (Scheme 2-2).
The ester of 3d was dissolved in 20% TFA in CH2Cl2 (0.3 M) and kept for 1 h at rt. Volatiles were evaporated in vaccuo to provide the carboxylic acid and 5a. The carboxylic acid was separated from 5d by a silica gel plug (10:1, hexanes:EtOAc to 5:1, CHCl3:MeOH) or a back-extraction procedure [solvent system: EtOAc-water (for the extraction of 5d under a basic condition (NaHCO3), CHCl3-water (for the extraction of the carboxylic acid under an acidic condition (dil. HCl)].

A short description of series [2]: Stability and cleavage of linker 16 esters. It is filed as physicochemical. As to the method: One of the linkers of the invention, (2-chloro-4-methoxyphenyl)(2,4-dichlorophenyl)methanol 16 was used to immobilize carboxylic acids. The linker was stable under a Boc-deprotection conditions (TsOH.H2O/THF—CH2Cl2). In addition, unlike photolytic (350 nm, 72 h) or Pd-mediated or base-catalyzed cleavage of linkers, the esters of linker 16 was efficiently be cleaved via volatile acids such as 30% TFA/CH2Cl2 or HF.pyridine within 1 h. The progress of each step was conveniently be monitored by LC-MS after the treatment of such Brønsted acids followed by evaporation of volatiles.

The source of these data is US7858825B2, “Acid and base stable diphenylmethanol derivatives and methods of use” (Colorado State University Research Foundation, priority 2007, dated 2010).

Turning to `COc1cc(Cl)c(C(OC(=O)C(F)(F)F)c2ccc(Cl)cc2Cl)c(Cl)c1` (stereo not shown) [5a, (2,6-dichloro-4-methoxyphenyl)(2,4-dichlorophenyl)methyl 2,2,2-trifluoroacetate], the “time for cleavage to regenerate 3d” value in series [1] (aq NH3 in THF-MeOH) is reported as ≤ 3 h. For the same molecule, in series [1] (most acidic conditions tested in Table 1 and SiO2), the “stability under acidic conditions” value is given as “stable”.
Take `COc1ccc(C(O)c2ccc(Cl)cc2Cl)c(Cl)c1` (stereo not shown) [compound 16, (2-chloro-4-methoxyphenyl)(2,4-dichlorophenyl)methanol]: the “time for cleavage of the esters of the linker” value in series [2] (30% TFA/CH2Cl2 or HF.pyridine) is ≤ 1 h. In addition, the stability of linker result in series [2] (Boc-deprotection conditions (TsOH.H2O/THF—CH2Cl2)) is listed as “stable”.
